Literature values, collected in patent publication US20100317631A1, “Gel Composition and Transcrotal Application of a Composition for the Treatment of Hypogonadism” (Dr. August Wolff GmbH & Co. Arzneimittel, priority 2000, published 2010).

[1] = intra muscular, standard dosage 250 mg

SMILES: CCCCCCC(=O)O[C@H]1CC[C@H]2[C@@H]3CCC4=CC(=O)CC[C@]4(C)[C@H]3CC[C@]12C [testosterone enanthat]
- terminal half-time value (intra muscular administration): 4.5 days
- testosterone concentrations in serum achieved [1]: up to 50 nmol/l
- time at which serum testosterone passes the lower limit of normal range [1]: > 12 days
